Experimental data taken from ChEMBL document CHEMBL1147515, “Nickel(II) and cobalt(II) complexes of hydroxyl-substituted triazamacrocyclic ligand as potential antitumor agents” (2004).

Key:
HXO-RB44 cell line [1] = assay: Percentage of growth inhibition of HXO-RB44 cells treated for 48 hr at 10E-5 M/L and incubated with 5 g/L MTT for 4 h.; assay type: functional, Homo sapiens; details: for inhibition: Homo sapiens
Bel-7402 [2] = assay: Percentage of growth inhibition of BEL-7402 cells treated for 48 hr at 10E-4 M/L and incubated with 5 g/L MTT for 4 h.; assay type: functional, Homo sapiens; details: for inhibition: Homo sapiens
Bel-7402 [3] = assay: Percentage of growth inhibition of BEL-7402 cells treated for 48 hr at 10E-3 M/L and incubated with 5 g/L MTT for 4 h.; assay type: functional, Homo sapiens; details: for inhibition: Homo sapiens
HXO-RB44 cell line [4] = assay: Percentage of growth inhibition of HXO-RB44 cells treated for 48 hr at 10E-6 M/L and incubated with 5 g/L MTT for 4 h.; assay type: functional, Homo sapiens; details: for inhibition: Homo sapiens
HXO-RB44 cell line [5] = assay: Percentage of growth inhibition of HXO-RB44 cells treated for 48 hr at 10E-4 M/L and incubated with 5 g/L MTT for 4 h.; assay type: functional, Homo sapiens; details: for inhibition: Homo sapiens
Bel-7402 [6] = assay: Percentage of growth inhibition of BEL-7402 cells treated for 48 hr at 10E-5 M/L and incubated with 5 g/L MTT for 4 h.; assay type: functional, cell-based; details: Homo sapiens

Row | Molecule | Inhibition (HXO-RB44 cell line [1]) [%] | Inhibition (Bel-7402 [2]) [%] | Inhibition (Bel-7402 [3]) [%] | Inhibition (HXO-RB44 cell line [4]) [%] | Inhibition (HXO-RB44 cell line [5]) [%] | inhibition (HXO-RB44 cell line [1]) [%] | inhibition (Bel-7402 [2]) [%] | inhibition (Bel-7402 [3]) [%] | inhibition (HXO-RB44 cell line [4]) [%] | inhibition (HXO-RB44 cell line [5]) [%] | inhibition (Bel-7402 [6]) [%]
1 | OC1CNCCNCCNC1 | 3 | 16 | 34 | 1 | 3 |  |  |  |  |  | 
2 | COBALT (II) ION |  |  |  |  |  | 3 | 5 | 79 | 3 | 7 | 0
3 | COPPER |  |  |  |  |  | 3 | 3 | 81 | 0 | 5 | 2
